The structures appear in SMILES notation. In brackets after ≈: the same amount, converted by molar mass.

Series [1] relates to Corynebacterium xerosis (DSM 20743). The series can be described thus: quantitative suspension test. Format: cell-based.
Series [2] is described as follows: investigations into chemical properties (stability). Format: physicochemical. The text has this:
In addition, in pure form, the compound according to the invention of the formula 1 is a white solid which forms a colorless solution in (cosmetic and/or pharmaceutical) carriers; furthermore, no discoloration was observed after incorporation of the compound according to the invention of the formula 1 in cosmetic products, in medical devices and in pharmaceutical preparations.

For series [3], the system named is Staphylococcus epidermidis (ATCC 12228). The series can be described thus: quantitative suspension test. In kind it is cell-based.
Series [4] deals with Corynebacterium xerosis (DSM 20743). The series can be described thus: turbidimetric growth-curve MIC determination. In kind it is cell-based. The following applies: DSM20743, turbidimetry 620 nm, 16 h, 37° C., read-out: MIC value (complete inhibition of growth). The text has this: (§1) The recognition that 3-(4-hydroxy-3-methoxyphenyl)-1-(4-hydroxyphenyl)-1-propanone of the formula 1 is very particularly suitable for combating microorganisms which are responsible for body odor is based on series of investigations relating to the particularly relevant microorganisms Staphylococcus epidermidis, Corynebacterium xerosis and Brevibacterium epidermidis. The antimicrobial action of 3-(4-hydroxy-3-methoxyphenyl)-1-(4-hydroxyphenyl)-1-propanone is here detected with the assistance of a turbidimetric measurement method. Turbidity measurement is used to establish growth curves for the particular microorganism in the presence and absence of an antimicrobial active ingredient. A possible inhibitory action of the test substance used is identified from the profile of the growth curves. Solutions with saline or DMSO for 100% growth are prepared as a negative control. The active substances to be investigated are first diluted in DMSO in reaction vessels. Dilution is carried out in accordance with the concentration range to be tested and corresponds in each case to 100 times the concentration of the subsequent final concentration in the test. Testing is usually begun with a final concentration of 2000 ppm in the test. Growth curves at final concentrations of 1000 ppm, 500 ppm, 250 ppm, 125 ppm, 64 ppm, 32 ppm, 16 ppm and 8 ppm are subsequently determined. The bacterial cultures are then incubated in the presence of the various final concentrations of antimicrobial active ingredient for 16 h (incubation temperature: 37° C.). The absorption values (wavelength 620 nm; measurement interval: 20 minutes) obtained over the 16 hour period of turbidimetric measurement are recorded and exported into the spreadsheet program MS Excel. Means from in each case three parallel batches are calculated and used as the basis for establishing growth curves. The curves of the individual test sample concentrations are compared with those for the negative controls and the MIC value (minimum inhibitory concentration) is determined. […]

Series [5] concerns Staphylococcus epidermidis (ATCC 12228). The series can be described thus: turbidimetric growth-curve MIC determination. In kind it is cell-based. To be noted: turbidimetry 620 nm, 16 h, 37° C.
From the text: as §1

Series [6] deals with Brevibacterium epidermidis (ATCC 35514). The series can be described thus: turbidimetric growth-curve MIC determination. To be noted: turbidimetry 620 nm, 16 h, 37° C. In kind it is cell-based.
From the text: as §1

The subject of series [7] is microorganisms which cause body odor. The series can be described thus: in vivo sniffing tests on human test subjects suffering from severe body odor. The following applies: human test subjects with severe body odor.
In series [8] the test system is Brevibacterium epidermidis (ATCC 35514). The series can be described thus: quantitative suspension test. Format: cell-based.

As for `COc1cc(CCC(=O)c2ccc(O)cc2)ccc1O` [3-(4-hydroxy-3-methoxyphenyl)-1-(4-hydroxyphenyl)-1-propanone], the antimicrobial activity result in series [1], in series [3] and in series [8] was “confirm the antimicrobial activity” each time. For the same compound, in series [2], the temperature stability entry was “elevated temperature stability”. Further, the “stability over pH values” in series [2] (wide range of pH values) is listed as “high stability over a wide range of pH values”. Besides, the MIC in series [4] is 500 µg/mL (≈ 1840 µM). For the same compound, the “concentration giving inhibition of the growth” value in series [5] and in series [6] was “below 0.1 wt. %” throughout. Also, the “antimicrobial activity (body odor)” value in series [7] is “confirm the antimicrobial activity”.

The values above are taken from patent US8115033B2, “3-(4-hydroxy-3-methoxyphenyl)-1-(4-hydroxyphenyl)-1-propanone and use thereof as an antimicrobial active ingredient” (Symrise AG, priority 2007, dated 2012).
